Assay results reported in PubChem BioAssay (NCI).
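48-hour exposure; five concentrations; linearly interpolated endpoints. TGI: concentration producing complete growth inhibition.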

What was measured:
Assay in all cases: NCI-60 cell line screen, 48 h
786-0 renal = tested on: 786-0 renal
A549 NSCLC = tested on: A549 NSCLC
ACHN renal = tested on: ACHN renal
BT-549 breast = tested on: BT-549 breast
CAKI-1 renal = tested on: CAKI-1 renal
COLO 205 colon = tested on: COLO 205 colon
DU-145 prostate = tested on: DU-145 prostate
EKVX NSCLC = tested on: EKVX NSCLC
HCC-2998 colon = tested on: HCC-2998 colon
HCT-15 colon = tested on: HCT-15 colon
HOP-62 NSCLC = tested on: HOP-62 NSCLC
HOP-92 NSCLC = tested on: HOP-92 NSCLC
HS 578T breast = tested on: HS 578T breast
HT29 colon = tested on: HT29 colon
IGROV1 ovarian = tested on: IGROV1 ovarian
K-562 leukemia = tested on: K-562 leukemia
KM12 colon = tested on: KM12 colon
M14 melanoma = tested on: M14 melanoma
MALME-3M melanoma = tested on: MALME-3M melanoma
MCF7 breast = tested on: MCF7 breast
MDA-MB-231 breast = tested on: MDA-MB-231 breast
MDA-MB-435 = tested on: MDA-MB-435
MDA-N = tested on: MDA-N
MOLT-4 leukemia = tested on: MOLT-4 leukemia
NCI-H226 lung = tested on: NCI-H226 lung
NCI-H23 lung = tested on: NCI-H23 lung
NCI-H460 lung = tested on: NCI-H460 lung
NCI-H522 lung = tested on: NCI-H522 lung
NCI/ADR-RES ovarian = tested on: NCI/ADR-RES ovarian
OVCAR-3 ovarian = tested on: OVCAR-3 ovarian
OVCAR-5 ovarian = tested on: OVCAR-5 ovarian
OVCAR-8 ovarian = tested on: OVCAR-8 ovarian
PC-3 prostate = tested on: PC-3 prostate
RPMI-8226 leukemia = tested on: RPMI-8226 leukemia
RXF 393 renal = tested on: RXF 393 renal
SF-268 CNS = tested on: SF-268 CNS
SF-295 CNS = tested on: SF-295 CNS
SF-539 CNS = tested on: SF-539 CNS
SK-MEL-2 melanoma = tested on: SK-MEL-2 melanoma
SK-MEL-28 melanoma = tested on: SK-MEL-28 melanoma
SK-MEL-5 melanoma = tested on: SK-MEL-5 melanoma
SK-OV-3 ovarian = tested on: SK-OV-3 ovarian
SN12C renal = tested on: SN12C renal
SNB-19 CNS = tested on: SNB-19 CNS
SNB-75 CNS = tested on: SNB-75 CNS
SR leukemia = tested on: SR leukemia
SW-620 colon = tested on: SW-620 colon
T-47D breast = tested on: T-47D breast
TK-10 renal = tested on: TK-10 renal
U251 CNS = tested on: U251 CNS
UACC-257 melanoma = tested on: UACC-257 melanoma
UACC-62 melanoma = tested on: UACC-62 melanoma
UO-31 renal = tested on: UO-31 renal
A498 renal = tested on: A498 renal
CCRF-CEM leukemia = tested on: CCRF-CEM leukemia
HCT-116 colon = tested on: HCT-116 colon
HL-60(TB) leukemia = tested on: HL-60(TB) leukemia
LOX IMVI melanoma = tested on: LOX IMVI melanoma
OVCAR-4 ovarian = tested on: OVCAR-4 ovarian

Measured: TGI

COc1ccc(N=C2C(=Nc3ccc(OC)cc3)N(S(=O)(=O)c3ccccc3)C(=S)N2c2ccccc2)cc1
not listed: A498 renal | CCRF-CEM leukemia | HCT-116 colon | HL-60(TB) leukemia | LOX IMVI melanoma | OVCAR-4 ovarian
> 100 µM: all other assays above

N#Cc1c(NCCc2ccc(F)cc2)c2ccccc2n2c1nc1ccccc12
53.1 µM: A498 renal
65.7 µM: RXF 393 renal
39.9 µM: IGROV1 ovarian
66.4 µM: OVCAR-3 ovarian
39.1 µM: NCI-H23 lung
72.6 µM: BT-549 breast
91.5 µM: HT29 colon
61 µM: U251 CNS
29.3 µM: EKVX NSCLC
25.4 µM: OVCAR-8 ovarian
95.6 µM: T-47D breast
9.16 µM: OVCAR-4 ovarian
96.5 µM: SF-268 CNS
19.8 µM: HOP-92 NSCLC
30.8 µM: SNB-75 CNS
17.6 µM: 786-0 renal
39.5 µM: UO-31 renal
82.7 µM: PC-3 prostate
32 µM: HS 578T breast
55.4 µM: NCI-H226 lung
32.8 µM: UACC-62 melanoma
51 µM: SNB-19 CNS
36.3 µM: MDA-MB-231 breast
65.4 µM: SF-295 CNS
29.1 µM: CAKI-1 renal
59.2 µM: NCI/ADR-RES ovarian
98.1 µM: DU-145 prostate
35.2 µM: ACHN renal
60.8 µM: TK-10 renal
not listed: MALME-3M melanoma | NCI-H522 lung | SK-MEL-5 melanoma
> 100 µM: all other assays above

CC(=O)Nc1ccc(CNc2cc(=O)n(C)c(=O)[nH]2)cc1
not listed: A498 renal
> 100 µM: all other assays above
